Laboratory results: patent US20240180914A1, “ORAL GEL COMPOSITION AND USE THEREOF” (DR. KURT WOLFF GMBH & CO. KG, priority 2021, published 2024)

Tests used:
VEGF [1] = test: Q-PCR, VEGF mRNA expression in HaCaT cell lysates; assay type: cell-based, human; conditions: all caffeine concentrations; 24 hours; Experiments 1 and 2
Method: (§1) For Q-PCR: Determination of VEGF, HGF and EGF mRNA expression in cell lysates • 2. For ELISA: Determination of VEGF, HGF and EGF protein synthesis/secretion into the culture medium
(§2) The initial cell count was • 1. for Q-PCR: 140,000 cells/well in 1500 μl culture medium • 2. for ELISA: 140,000 cells/well in 1.500 μl culture medium.
(§3) The trial duration for • 1. Q-PCR was 24 hours (single treatment at time 0 h) • 2. ELISA was 48 hours (double treatment at time 0 h and 24 h without changing the medium).
(§4) The study was carried out • 1. for Q-PCR by determining VEGF mRNA expression in cell lysates • 2. for ELISA by determining VEGF protein synthesis/secretion in the culture medium.

TGFβ1 [2] = test: Q-PCR, TGFβ1 mRNA expression in HaCaT; assay type: cell-based, human; conditions: all tested caffeine concentrations; 24 h; Experiments 1 and 2
GM-CSF [3] = test: ELISA, experiments regarding GM-CSF in HaCaT; assay type: cell-based, human; conditions: 48 h
Method: as §1, §2, §3

[4] = system: human epidermal HaCaT keratinocytes; test: colourimetric MTT viability study
Method: To investigate the effect of caffeine on the biological functions of human epidermal HaCaT keratinocytes, cell experiments were performed on human epidermal HaCaT keratinocytes, wherein the following studies were carried out: • 1. P13-A biological assay 1 with two independent studies • 2. P13-B biological assay 2 with two independent studies.
The initial cell count was 5000 cells/well in 100 μl culture medium.
The culture medium was HaCaT medium (DMEM with the addition of 10% FBS, 1% penicillin-streptomycin, 0.5% fungizone).
The treatment groups were as follows: • 1. Control group (CTRL) • 2. 0.00005% caffeine • 3. 0.0001% caffeine • 4. 0.0005% caffeine • 5. 0.001% caffeine • 6. 0.005% caffeine
The trial durations were 24, 48 and 72 hours.
The study took the form of a colourimetric MTT study.

TGFβ1 [5] = test: ELISA, TGFβ1-specific protein in HaCaT; assay type: cell-based, human; conditions: 48 h; both experiments
[6] = system: human epidermal HaCaT keratinocytes; test: fluorometric CyQUANT cell proliferation study (DNA content); assay type: cell-based; conditions: 0.00005, 0.0005, 0.005% caffeine; 24, 48 or 72 hours; best effects after 72 hours
Method: To investigate the effect of caffeine on cell proliferation of human epidermal HaCaT keratinocytes, human HaCaT keratinocytes were subjected to a CyQUANT viability assay, wherein the following series of experiments were performed: • 1. P22 Experiment 1 (biological assay 1) • 2. P24 Experiment 2 (biological assay 2).
The trial durations were 24, 48 or 72 hours.
The study was carried out by fluorometric CyQUANT study, wherein the DNA content was measured, reflecting cell proliferation.

TNFα [7] = test: Q-PCR, TNFα-specific mRNA in HaCaT; assay type: cell-based, human; conditions: both experiments
HGF [8] = test: Q-PCR, HGF mRNA expression in HaCaT cell lysates; assay type: cell-based, human; conditions: both experiments
Method: as §1, §2, §3

HGF [9] = test: ELISA, HGF protein synthesis/secretion in HaCaT; assay type: cell-based, human; conditions: both experiments
Method: as §1, §2, §3

TGFβ2 = test: Q-PCR, TGFβ2 mRNA expression in HaCaT; assay type: cell-based, human
GM-CSF [10] = test: Q-PCR, experiments regarding GM-CSF in HaCaT; assay type: cell-based, human; conditions: all tested caffeine concentrations; 24 h; Experiments 1 and 2
Method: as §1, §2, §3

VEGF [11] = test: ELISA, VEGF protein synthesis/secretion into the culture medium of HaCaT; assay type: cell-based, human; conditions: 48 hours
Method: as §1, §2, §3, §4

TNFα [12] = test: ELISA, TNFα-specific protein in HaCaT; assay type: cell-based, human; conditions: both experiments
[13] = 0.0005% caffeine, both experiments

Cn1c(=O)c2c(ncn2C)n(C)c1=O [caffeine]
mRNA expression of VEGF compared to the control group (VEGF [1]): appear to increase mRNA expression of VEGF
mRNA expression of TGFβ1 (TGFβ1 [2]): None of the tested caffeine concentrations changed the mRNA expression of TGFβ1
VEGF protein production/secretion compared to the control group (under experiments regarding GM-CSF) (GM-CSF [3]; 0j.005% caffeine, Experiment 2): also showed an effect
VEGF protein production/secretion compared to the control group (under experiments regarding GM-CSF) (GM-CSF [3]; [13]): increased VEGF protein production/secretion
cytotoxicity ([4]; 0.00005-0.005% caffeine, 24, 48 and 72 hours): none of the concentrations tested showed cytotoxicity
number of viable cells ([4]; certain concentrations of caffeine): increased the number of viable cells
level of TGFβ1-specific protein (TGFβ1 [5]): below the detection limit
cell proliferation (DNA content) [6]: appears to promote cell proliferation
expression of TNFα-specific mRNA (TNFα [7]): below the detection limit
expression of HGF-specific mRNA (HGF [8]): below the detection limit
expression of HGF-specific protein (HGF [9]): below the detection limit
mRNA expression of TGFβ2 (TGFβ2; certain caffeine concentrations, 24 h, Experiment 2): apparently increase mRNA expression of TGFβ2
synthesis/production/secretion of TGFβ2 (overall conclusion) (TGFβ2; despite contradictory results in the two Q-PCR experiments): most likely does not alter
mRNA expression of VEGF compared to the control group (under experiments regarding GM-CSF) (GM-CSF [10]): apparently increased the mRNA expression of VEGF
VEGF protein production/secretion compared to the control group (VEGF [11]; [13]): increases VEGF protein production/secretion
VEGF protein production/secretion compared to the control group (VEGF [11]; 0.005% caffeine, Experiment 2): also showed an effect
expression of TNFα-specific protein (TNFα [12]): below the detection limit
